In article PMC7863721, “Plasticity of Carbohydrate Transport at the Blood-Brain Barrier” (Frontiers in Behavioral Neuroscience, 2021):

What was measured:
[1] = molecular target: T1, MFS3 (Major Facilitator Superfamily Transporter 3); MFS3-3xHA (Drosophila melanogaster, UniProt Q9VPX2); assay: […]-sugar uptake into cRNA-injected Xenopus oocytes, net flux over native oocytes; assay type: cell-based; conditions: labelled compound; pH 7.2, 60 min; concentration series; no reliable Km or Vmax obtained
T1 construct: b38 prints CG4762, apparently a misprint of CG4726
T1 sequence (Q9VPX2 1-512): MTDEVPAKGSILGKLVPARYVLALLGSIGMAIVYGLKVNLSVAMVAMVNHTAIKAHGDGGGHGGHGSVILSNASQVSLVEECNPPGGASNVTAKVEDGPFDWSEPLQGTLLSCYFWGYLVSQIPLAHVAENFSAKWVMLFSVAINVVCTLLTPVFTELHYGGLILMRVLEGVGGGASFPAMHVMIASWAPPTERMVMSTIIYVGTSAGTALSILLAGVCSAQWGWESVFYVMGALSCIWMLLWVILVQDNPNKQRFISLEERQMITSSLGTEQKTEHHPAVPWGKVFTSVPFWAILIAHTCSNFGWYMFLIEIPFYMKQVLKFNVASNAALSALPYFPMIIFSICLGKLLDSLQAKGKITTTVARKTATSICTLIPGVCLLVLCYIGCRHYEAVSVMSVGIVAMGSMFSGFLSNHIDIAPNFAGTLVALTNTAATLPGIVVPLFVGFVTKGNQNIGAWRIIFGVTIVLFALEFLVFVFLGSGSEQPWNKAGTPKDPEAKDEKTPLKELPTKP

[2] = molecular target: T2, Pippin (CG4797); Pippin-3xHA (Drosophila melanogaster, UniProt Q8MLQ7); assay: as above; assay type: cell-based; conditions: labelled compound; pH 7.2, 60 min; concentration series; no reliable Km or Vmax obtained
T2 sequence (Q8MLQ7 1-533): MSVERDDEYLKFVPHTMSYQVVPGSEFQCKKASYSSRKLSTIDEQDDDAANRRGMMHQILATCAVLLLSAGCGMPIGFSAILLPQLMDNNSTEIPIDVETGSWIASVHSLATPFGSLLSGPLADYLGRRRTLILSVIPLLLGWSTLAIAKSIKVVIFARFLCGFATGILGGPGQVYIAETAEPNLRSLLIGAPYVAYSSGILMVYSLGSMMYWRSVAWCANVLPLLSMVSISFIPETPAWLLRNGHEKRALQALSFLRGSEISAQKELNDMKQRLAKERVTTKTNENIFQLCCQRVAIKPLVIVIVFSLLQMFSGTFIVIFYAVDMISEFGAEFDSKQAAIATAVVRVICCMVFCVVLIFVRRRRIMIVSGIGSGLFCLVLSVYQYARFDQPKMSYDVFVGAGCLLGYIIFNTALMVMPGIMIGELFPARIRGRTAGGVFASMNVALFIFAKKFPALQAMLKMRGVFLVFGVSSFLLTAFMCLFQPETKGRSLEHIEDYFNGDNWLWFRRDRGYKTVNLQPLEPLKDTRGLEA

SMILES: OC[C@H]1OC(O)[C@H](O)[C@@H](O)[C@@H]1O (stereo partly shown) [glucose]
- 14C-sugar uptake into cRNA-injected Xenopus oocytes, net flux over native oocyte [1]: both Pippin and MFS3 facilitate uptake of glucose and trehalose efficiently
- 14C-sugar uptake into cRNA-injected Xenopus oocytes, net flux over native oocyte [2]: both Pippin and MFS3 facilitate uptake of glucose and trehalose efficiently

SMILES: OC[C@H]1O[C@H](O[C@H]2O[C@H](CO)[C@@H](O)[C@H](O)[C@H]2O)[C@H](O)[C@@H](O)[C@@H]1O [trehalose]
- 14C-sugar uptake into cRNA-injected Xenopus oocytes, net flux over native oocyte [1]: both Pippin and MFS3 facilitate uptake of glucose and trehalose efficiently
- 14C-sugar uptake into cRNA-injected Xenopus oocytes, net flux over native oocyte [2]: both Pippin and MFS3 facilitate uptake of glucose and trehalose efficiently
